Laboratory results as given in patent US12624038B2, “Molecules and methods related to treatment of uncontrolled cellular proliferation” (ST. JUDE CHILDREN'S RESEARCH HOSPITAL, priority 2019, dated 2026).
“Also recorded” adds a separate entry of the source. Read-outs that look alike come from different tables or passages of the source.

Columns and labels:
[1] = Caco-2 cell permeability; type: in vitro ADME; conditions: human, Caco-2; A to B (Table 4); read-out: Cac2 Papp A/B
Protocol: Compound Caco-2 cell permeability was determined using the Transwell® 0.4 μm polycarbonate membrane 96-well as described before (Uchida, et al. (2009) J Pharmacol Toxicol Methods 59(1): 39-43). Briefly, Caco-2 cells monolayers were incubated over 2 hours at 37° C. Fractions were collected from receivers (basal side, B), and concentrations were assessed by UPLC/MS (Waters; Milford, MA). All compounds were tested in triplicates. The A→B (or B→A) apparent permeability coefficients (Papp) of each compound were calculated using the equation, Papp=dQ/dt×1/AC0, where dQ/dt equals the flux of a drug across the monolayer, A equals the total insert well surface area, and C0 is the initial concentration of substrate in the donor compartment.

[2] = test system: MHH-CALL-4; assay: Cytotoxicity assay (resazurin, 72 hours) in MHH-CALL-4 cells; type: cell-based, human; conditions: for killing of MHH-CALL-4 cells (activity in words): correlated with degradation of GSPT1 and JAK2, FIG. 7F
[3] = molecular target: TYK2 (Homo sapiens, UniProt P29597); assay: KdELECT Kd measurement (KINOMEscan platform), TYK2; type: binding; set-up: purchased Eurofins DiscoveRx; conditions: read-out: Kd to JAK family kinases, TYK2
TYK2, sequence (P29597 whole entry): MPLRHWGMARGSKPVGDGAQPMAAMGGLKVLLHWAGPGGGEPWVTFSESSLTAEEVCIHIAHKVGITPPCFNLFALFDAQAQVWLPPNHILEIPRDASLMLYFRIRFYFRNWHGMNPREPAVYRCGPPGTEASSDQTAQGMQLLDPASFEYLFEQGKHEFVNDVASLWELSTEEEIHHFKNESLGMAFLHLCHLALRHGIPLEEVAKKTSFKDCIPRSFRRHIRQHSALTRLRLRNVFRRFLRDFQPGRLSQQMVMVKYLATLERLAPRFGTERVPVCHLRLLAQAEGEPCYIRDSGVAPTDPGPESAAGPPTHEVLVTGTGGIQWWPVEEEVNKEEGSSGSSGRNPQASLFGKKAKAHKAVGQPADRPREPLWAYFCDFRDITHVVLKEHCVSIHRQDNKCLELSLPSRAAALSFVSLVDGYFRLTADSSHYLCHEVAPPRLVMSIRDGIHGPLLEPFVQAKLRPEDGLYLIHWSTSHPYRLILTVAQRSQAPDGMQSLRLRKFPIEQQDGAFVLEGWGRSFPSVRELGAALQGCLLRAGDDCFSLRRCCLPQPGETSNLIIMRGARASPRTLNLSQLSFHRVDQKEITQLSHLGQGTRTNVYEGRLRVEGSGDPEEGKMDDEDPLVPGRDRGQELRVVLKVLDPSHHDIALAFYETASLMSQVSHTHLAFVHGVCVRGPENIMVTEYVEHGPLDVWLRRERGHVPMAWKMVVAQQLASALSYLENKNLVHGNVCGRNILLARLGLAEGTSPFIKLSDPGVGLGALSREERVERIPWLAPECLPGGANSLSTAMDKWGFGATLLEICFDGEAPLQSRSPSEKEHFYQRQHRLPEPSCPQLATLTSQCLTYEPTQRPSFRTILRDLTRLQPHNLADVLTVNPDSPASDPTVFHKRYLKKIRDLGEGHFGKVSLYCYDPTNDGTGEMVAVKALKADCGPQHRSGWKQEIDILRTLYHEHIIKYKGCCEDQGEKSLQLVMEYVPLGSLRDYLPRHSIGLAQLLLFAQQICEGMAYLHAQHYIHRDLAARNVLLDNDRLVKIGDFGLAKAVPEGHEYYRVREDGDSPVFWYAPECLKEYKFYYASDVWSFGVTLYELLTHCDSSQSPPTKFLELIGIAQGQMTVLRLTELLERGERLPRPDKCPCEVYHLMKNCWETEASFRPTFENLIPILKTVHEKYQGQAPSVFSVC

[4] = molecular target: T1, JAK2 (Homo sapiens, UniProt O60674, I682F); assay: Target degradation (Western Blot) in MHH-CALL-4 cells, JAK2; type: cell-based; conditions: 100 nM PROTAC at 24 h
T1 construct: endogenous in cells; host or cells: MHH-CALL-4
T1 sequence (O60674 whole entry I682F): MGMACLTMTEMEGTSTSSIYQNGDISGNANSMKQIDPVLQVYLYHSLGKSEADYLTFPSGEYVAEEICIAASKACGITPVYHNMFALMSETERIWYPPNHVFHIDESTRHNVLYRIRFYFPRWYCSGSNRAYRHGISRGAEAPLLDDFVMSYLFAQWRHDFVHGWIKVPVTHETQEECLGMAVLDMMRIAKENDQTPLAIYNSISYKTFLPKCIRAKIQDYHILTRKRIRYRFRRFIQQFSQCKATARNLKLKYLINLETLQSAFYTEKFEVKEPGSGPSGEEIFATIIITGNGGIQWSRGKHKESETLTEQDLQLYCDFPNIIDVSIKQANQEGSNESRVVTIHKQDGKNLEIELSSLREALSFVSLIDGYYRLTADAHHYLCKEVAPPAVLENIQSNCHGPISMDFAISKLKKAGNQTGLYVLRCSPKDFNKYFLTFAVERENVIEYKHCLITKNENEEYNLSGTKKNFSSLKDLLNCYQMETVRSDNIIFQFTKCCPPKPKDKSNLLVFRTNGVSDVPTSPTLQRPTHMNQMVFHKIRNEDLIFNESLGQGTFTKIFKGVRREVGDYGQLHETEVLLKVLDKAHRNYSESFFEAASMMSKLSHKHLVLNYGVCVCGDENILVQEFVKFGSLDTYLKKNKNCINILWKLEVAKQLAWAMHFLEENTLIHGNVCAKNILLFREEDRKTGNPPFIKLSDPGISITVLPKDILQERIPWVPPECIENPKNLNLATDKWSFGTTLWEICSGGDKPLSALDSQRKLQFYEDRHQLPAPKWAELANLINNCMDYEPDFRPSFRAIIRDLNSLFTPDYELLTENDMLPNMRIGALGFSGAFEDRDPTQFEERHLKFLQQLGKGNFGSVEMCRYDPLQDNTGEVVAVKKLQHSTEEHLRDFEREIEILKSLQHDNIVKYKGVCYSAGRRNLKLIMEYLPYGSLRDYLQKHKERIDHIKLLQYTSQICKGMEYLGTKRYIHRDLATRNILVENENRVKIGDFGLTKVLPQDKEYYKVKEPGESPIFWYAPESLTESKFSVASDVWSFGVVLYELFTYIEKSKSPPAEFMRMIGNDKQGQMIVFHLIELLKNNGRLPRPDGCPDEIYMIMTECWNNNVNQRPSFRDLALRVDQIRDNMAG

[5] = molecular target: T2, IKZF1 (Homo sapiens, UniProt Q13422+Q96SW2); assay: Target degradation (Western Blot) in MHH-CALL-4 cells, IKZF1; type: cell-based; conditions: 100 nM PROTAC at 24 h
T2 construct: endogenous in cells; host or cells: MHH-CALL-4
T2 sequence (Q13422 whole entry): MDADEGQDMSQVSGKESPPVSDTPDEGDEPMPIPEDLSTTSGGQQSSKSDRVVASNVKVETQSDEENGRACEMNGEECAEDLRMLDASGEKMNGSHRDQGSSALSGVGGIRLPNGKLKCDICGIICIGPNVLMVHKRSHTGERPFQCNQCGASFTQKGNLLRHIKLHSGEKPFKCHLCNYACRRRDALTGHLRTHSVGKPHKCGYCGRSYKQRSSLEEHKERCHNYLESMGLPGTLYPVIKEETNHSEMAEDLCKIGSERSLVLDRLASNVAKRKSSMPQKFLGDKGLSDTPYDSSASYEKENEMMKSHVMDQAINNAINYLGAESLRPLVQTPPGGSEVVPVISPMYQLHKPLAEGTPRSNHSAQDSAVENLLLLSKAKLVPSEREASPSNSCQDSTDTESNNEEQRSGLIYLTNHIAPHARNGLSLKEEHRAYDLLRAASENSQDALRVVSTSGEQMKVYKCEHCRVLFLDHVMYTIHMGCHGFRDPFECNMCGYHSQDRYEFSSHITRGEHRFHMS
T2 sequence (Q96SW2 whole entry): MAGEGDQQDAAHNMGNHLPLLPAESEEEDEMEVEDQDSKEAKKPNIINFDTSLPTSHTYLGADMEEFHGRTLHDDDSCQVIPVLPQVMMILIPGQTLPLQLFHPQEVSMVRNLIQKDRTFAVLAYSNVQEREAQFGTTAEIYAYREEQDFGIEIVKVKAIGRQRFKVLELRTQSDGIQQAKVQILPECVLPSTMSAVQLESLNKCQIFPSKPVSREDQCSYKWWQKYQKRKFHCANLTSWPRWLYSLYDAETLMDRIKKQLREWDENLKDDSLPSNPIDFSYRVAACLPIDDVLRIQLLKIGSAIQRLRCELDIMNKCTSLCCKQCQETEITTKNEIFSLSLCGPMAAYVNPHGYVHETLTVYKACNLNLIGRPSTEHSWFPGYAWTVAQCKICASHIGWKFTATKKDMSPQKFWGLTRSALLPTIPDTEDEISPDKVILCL
T2 sequence (Q16531 whole entry partner): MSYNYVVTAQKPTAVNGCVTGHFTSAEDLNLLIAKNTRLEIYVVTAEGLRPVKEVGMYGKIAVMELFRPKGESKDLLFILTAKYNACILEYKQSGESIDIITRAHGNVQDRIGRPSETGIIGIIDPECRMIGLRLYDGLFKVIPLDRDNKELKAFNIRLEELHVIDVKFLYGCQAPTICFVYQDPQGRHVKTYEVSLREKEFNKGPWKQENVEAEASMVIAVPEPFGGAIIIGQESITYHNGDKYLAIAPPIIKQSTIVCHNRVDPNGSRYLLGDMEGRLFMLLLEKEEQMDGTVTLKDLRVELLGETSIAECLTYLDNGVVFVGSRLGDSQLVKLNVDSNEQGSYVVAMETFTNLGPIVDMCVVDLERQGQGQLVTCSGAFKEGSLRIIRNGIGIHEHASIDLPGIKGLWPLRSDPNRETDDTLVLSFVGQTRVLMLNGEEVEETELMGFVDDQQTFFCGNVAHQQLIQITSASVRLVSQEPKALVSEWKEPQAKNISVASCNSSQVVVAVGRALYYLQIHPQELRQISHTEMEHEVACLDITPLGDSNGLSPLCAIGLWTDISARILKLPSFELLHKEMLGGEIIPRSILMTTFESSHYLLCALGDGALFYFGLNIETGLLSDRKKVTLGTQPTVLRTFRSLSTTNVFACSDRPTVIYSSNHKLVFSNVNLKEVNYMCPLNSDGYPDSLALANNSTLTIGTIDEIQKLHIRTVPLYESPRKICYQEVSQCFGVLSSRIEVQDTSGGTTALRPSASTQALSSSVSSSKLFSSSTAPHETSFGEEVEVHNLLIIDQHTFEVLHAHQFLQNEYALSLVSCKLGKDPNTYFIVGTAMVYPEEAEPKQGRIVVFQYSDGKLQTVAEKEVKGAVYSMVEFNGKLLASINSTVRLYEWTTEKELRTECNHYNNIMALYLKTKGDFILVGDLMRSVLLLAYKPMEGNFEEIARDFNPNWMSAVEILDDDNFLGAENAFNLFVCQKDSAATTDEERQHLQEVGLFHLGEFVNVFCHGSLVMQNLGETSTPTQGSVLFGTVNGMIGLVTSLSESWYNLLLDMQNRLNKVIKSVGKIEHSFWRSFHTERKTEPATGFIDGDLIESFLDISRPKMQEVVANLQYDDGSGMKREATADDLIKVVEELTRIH

[6] = molecular target: T3, GSPT1 (Homo sapiens, UniProt P15170+Q96SW2); assay: Target degradation (Western Blot) in MHH-CALL-4 cells, GSPT1; type: cell-based; conditions: 100 nM PROTAC at 24 h
T3 construct: endogenous in cells; host or cells: MHH-CALL-4
T3 sequence (P15170 whole entry): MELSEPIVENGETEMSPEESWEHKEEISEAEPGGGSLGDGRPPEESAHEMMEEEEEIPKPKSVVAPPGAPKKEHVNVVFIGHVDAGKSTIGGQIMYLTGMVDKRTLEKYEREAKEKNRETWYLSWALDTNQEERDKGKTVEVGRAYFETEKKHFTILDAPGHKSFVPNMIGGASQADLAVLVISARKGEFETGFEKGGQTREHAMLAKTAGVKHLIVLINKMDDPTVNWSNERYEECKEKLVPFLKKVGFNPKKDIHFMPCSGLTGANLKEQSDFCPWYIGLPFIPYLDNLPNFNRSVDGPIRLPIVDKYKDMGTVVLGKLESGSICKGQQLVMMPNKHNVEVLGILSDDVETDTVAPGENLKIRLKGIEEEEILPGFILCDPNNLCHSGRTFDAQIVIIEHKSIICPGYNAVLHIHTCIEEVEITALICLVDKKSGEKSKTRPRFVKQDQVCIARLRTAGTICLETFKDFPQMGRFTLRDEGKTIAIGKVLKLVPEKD
T3 sequence (Q96SW2 whole entry): as the sequence (Q96SW2 whole entry) above
T3 sequence (Q16531 whole entry partner): as the sequence (Q16531 whole entry partner) above

[7] = test system: Human CD45+ leukemic cells from patient derived xenografts (PDX); assay: Ex vivo cytotoxicity (MTT) in PDX leukemic cells; conditions: FIG. 6A
[8] = Homo sapiens, MHHCALL4, MHH-CALL-4 (Table 1), read-out: EC50
[9] = Homo sapiens, MHHCALL4, Table 6, starred: EC50 from partial dose response curve, read-out: MHHCALL4 EC50 from partial dose response curve
[10] = Homo sapiens, MHHCALL4, MHH-CALL-4 (Table 2), read-out: EC50 in MHH-CALL-4

CCS(=O)(=O)N1CC(CC#N)(n2cc(-c3nc(Nc4ccc(C(=O)NCCN5CCN(c6ccc7c(c6)C(=O)N(C6CCC(=O)NC6=O)C7=O)CC5)cc4)nc4[nH]ccc34)cn2)C1 (centres unmarked) [Compound 8]
Papp A→B at 2 h [1]: 0.002 ×10⁻⁶ cm/s
killing of MHH-CALL-4 cells (activity in words) [2]: intermediately effective; also recorded: reduced activity

CCCn1cc(-c2nc(Nc3ccc(NC(=O)CCOCCOCCOCCOCCOCCOCCNc4cccc5c4C(=O)N(C4CCC(=O)NC4=O)C5=O)cc3)nc3[nH]ccc23)cn1 (centres unmarked) [SJ000986341]
EC50 [2, 8]: 5.83 µM

CCCn1cc(-c2nc(Nc3ccc(NC(=O)CCOCCOCCOCCOCCOCCNc4cccc5c4C(=O)N(C4CCC(=O)NC4=O)C5=O)cc3)nc3[nH]ccc23)cn1 (centres unmarked) [SJ000986342]
EC50 [2, 8]: 6.89 µM

CCS(=O)(=O)N1CC(CC#N)(n2cc(-c3ncnc4[nH]ccc34)cn2)C1 [Baricitinib, baricitinib, reference compound]
Kd [3]: 0.0013 µM

CCCn1cc(-c2nc(NCCOCCOCCOCCOCCOCCOCCNC(=O)CNc3cccc4c3CN(C3CCC(=O)NC3=O)C4=O)nc3[nH]ccc23)cn1 (centres unmarked) [SJ000986078, 2-((2-(2,6-dioxopiperidin-3-yl)-1-oxoisoindolin-4-yl)amino)-N-(20-((4-(1-propyl-1H-pyrazol-4-yl)-7H-pyrrolo[2,3-d]pyrimidin-2-yl)amino)-3,6,9,12,15,18-hexaoxaicosyl)acetamide]
EC50 [2, 8]: > 100 µM

CCCn1cc(-c2nc(Nc3ccc(C(=O)NCCOCCOCCOCCOCCNc4cccc5c4C(=O)N(C4CCC(=O)NC4=O)C5=O)cc3)nc3[nH]ccc23)cn1 (centres unmarked) [SJ000986049]
EC50 [2, 8]: 2.3 µM

CCS(=O)(=O)N1CC(CC#N)(n2cc(-c3nc(Nc4ccc(C(=O)NCCCCNc5ccc6c(c5)C(=O)N(C5CCC(=O)NC5=O)C6=O)cc4)nc4[nH]ccc34)cn2)C1 (centres unmarked) [Compound 80]
Target Degradation (Western Blot) JAK2 [4]: 1 (1 = None (<20% degradation at 24 h))
Target Degradation (Western Blot) IKZF1 [5]: 1 (1 = None (<20% degradation at 24 h))
EC50 ([2]; Homo sapiens, MHHCALL4, Table 6, no star, read-out: MHHCALL4 EC50): > 5.5 µM
killing of MHH-CALL-4 cells (activity in words) [2]: relatively low activity

N#CC[C@H](C1CCCC1)n1cc(-c2ncnc3[nH]ccc23)cn1 [Ruxolitinib, ruxolitinib, reference compound]
EC50 ([2]; Homo sapiens, MHHCALL4, read-out: EC50 in MHH-CALL-4): 25.8 µM
EC50 ([2]; Homo sapiens, MHHCALL4, read-out: MHHCALL4 EC50): 25.8 µM

CCS(=O)(=O)N1CC(CC#N)(n2cc(-c3nc(Nc4ccc(C(=O)NCCCNC(=O)COc5cccc6c5C(=O)N(C5CCC(=O)NC5=O)C6=O)cc4)nc4[nH]ccc34)cn2)C1 (centres unmarked) [Compound 59]
Target Degradation (Western Blot) JAK2 [4]: 1 (1 = None (<20% degradation at 24 h))
Target Degradation (Western Blot) IKZF1 [5]: 1 (1 = None (<20% degradation at 24 h))
EC50 [2, 9]: 4.19 µM
killing of MHH-CALL-4 cells (activity in words) [2]: relatively low activity

CCS(=O)(=O)N1CC(CC#N)(n2cc(-c3nc(Nc4ccc(C(=O)NCCCN5CCN(c6ccc7c(c6)C(=O)N(C6CCC(=O)NC6=O)C7=O)CC5)cc4)nc4[nH]ccc34)cn2)C1 (centres unmarked) [Compound 56]
Target Degradation (Western Blot) JAK2 [4]: 2 (2 = Medium (20-40% degradation at 24 h))
Target Degradation (Western Blot) IKZF1 [5]: 1 (1 = None (<20% degradation at 24 h))
EC50 [2, 9]: 0.562 µM
killing of MHH-CALL-4 cells (activity in words) [2]: intermediately effective

CCS(=O)(=O)N1CC(CC#N)(n2cc(-c3nc(Nc4ccc(C(=O)NCCCCNc5cccc6c5C(=O)N(C5CCC(=O)N(C)C5=O)C6=O)cc4)nc4[nH]ccc34)cn2)C1 (centres unmarked) [Compound 61]
Target Degradation (Western Blot) JAK2 [4]: 1 (1 = None (<20% degradation at 24 h))
Target Degradation (Western Blot) IKZF1 [5]: 2 (2 = Medium (20-40% degradation at 24 h))
EC50 [2, 9]: 0.0515 µM
killing of MHH-CALL-4 cells (activity in words) [2]: intermediately effective

CCCn1cc(-c2nc(Nc3ccc(C(=O)NCCOCCOCCOCCOCCOCCOCCNc4cccc5c4C(=O)N(C4CCCNC4=O)C5=O)cc3)nc3[nH]ccc23)cn1 (centres unmarked) [SJ000986343]
EC50 [2, 8]: 12.8 µM

Nc1cccc2c1C(=O)N(C1CCC(=O)NC1=O)C2=O (centres unmarked) [Pomalidomide, pomalidomide, reference compound]
EC50 [2, 10]: 63.7 µM

CCCn1cc(-c2nc(Nc3ccc(C(=O)NCCOCCOCCOCCOCCOCCOCCNc4cccc5c4C(=O)N(C4CCC(=O)NC4=O)C5=O)cc3)nc3[nH]ccc23)cn1 (centres unmarked) [SJ000986050]
EC50 [2, 8]: 0.72 µM

CCCn1cc(-c2nc(Nc3ccc(C(=O)NCCOCCOCCNc4cccc5c4C(=O)N(C4CCC(=O)NC4=O)C5=O)cc3)nc3[nH]ccc23)cn1 (centres unmarked) [SJ000986339]
EC50 [2, 8]: > 100 µM

Nc1cccc2c1CN(C1CCC(=O)NC1=O)C2=O (centres unmarked) [Lenalidomide, lenalidomide, reference compound]
EC50 [2, 10]: 34.5 µM

O=C1CCC(N2C(=O)c3ccccc3C2=O)C(=O)N1 (centres unmarked) [Thalidomide, thalidomide, reference compound]
EC50 [2, 10]: 60 µM

CCS(=O)(=O)N1CC(CC#N)(n2cc(-c3nc(Nc4ccc(C(=O)NCCCNc5ccc6c(c5)C(=O)N(C5CCC(=O)NC5=O)C6=O)cc4)nc4[nH]ccc34)cn2)C1 (centres unmarked) [Compound 53]
Target Degradation (Western Blot) JAK2 [4]: 1 (1 = None (<20% degradation at 24 h))
EC50 [2, 9]: 0.0346 µM
killing of MHH-CALL-4 cells (activity in words) [2]: intermediately effective
Target Degradation (Western Blot) GSPT1 [6]: 3 (3 = Strong (>60% degradation at 24 h))

CC(=O)Nc1cc(Oc2ccc3c(nc(Nc4ccc(F)cc4F)n3C)c2C)ccn1 [CHZ868, reference compound]
EC50 ([2]; MHH-CALL-4 (Table 2), read-out: EC50 in MHH-CALL-4): 0.18 µM
cytotoxicity in PDX cells ex vivo [7]: not

CCCn1cc(-c2nc(NCCOCCOCCOCCOCCNC(=O)CNc3cccc4c3CN(C3CCC(=O)NC3=O)C4=O)nc3[nH]ccc23)cn1 (centres unmarked) [SJ000986079, 2-((2-(2,6-dioxopiperidin-3-yl)-1-oxoisoindolin-4-yl)amino)-N-(14-((4-(1-propyl-1H-pyrazol-4-yl)-7H-pyrrolo[2,3-d]pyrimidin-2-yl)amino)-3,6,9,12-tetraoxatetradecyl)acetamide]
EC50 [2, 8]: > 100 µM
